Reference: patent US10188630B2, “Methods for identifying and using inhibitors of casein kinase 1 epsilon isoform for inhibiting the growth and/or proliferation of MYC-driven tumor cells” (Fred Hutchinson Cancer Research Center, priority 2010, dated 2019)

Legend:
[1] = test system: SK-N-AS (normal MYCN expression); conditions: 1 μM or 10 μM; 48, 72 and 96 hours
Experimental: (§1) Cyclopamine, a known natural inhibitor of SHH, was administered to SK-N-AS and IMR-32, to assess the impact of SHH inhibition on cell viability of neuroblastoma cells with normal and amplified MYCN expression, respectively. Cyclopamine was administered to the SK-N-AS and IMR-32 in 1 μM or 10 μM doses, and the growth inhibition was assayed at 48, 72 and 96 hours.

[2] = test system: IMR-32 (amplified MYCN expression); conditions: 1 μM or 10 μM; 48, 72 and 96 hours; compared to SK-N-AS
Experimental: as §1

[3] = test system: IMR-32 cells (amplified MYCN expression); assay: Microscopic analysis of neuroblastoma cells after IC261; format: cell-based; conditions: 48 hours; 0.1 μM or 1.0 μM IC261
Experimental: (§2) Microscopic analysis of the SN-N-AS (normal MYCN expression) and IMR-32 (amplified MYCN expression) neuroblastoma cell lines, further supporting the differential effect of the CSNK1ε inhibitor, IC261, on the health and proliferation of neuroblastoma cells overexpressing MYCN. Referring to FIG. 5, top line, micrographs are provided illustrating SK-N-AS (normal MYCN expression) cells in culture before and 48 hours after culture with DMSO, 0.33 μM, or 3.3 μM IC261. Referring to FIG. 5, bottom line, micrographs are provided illustrating IMR-32 cells (amplified MYCN expression) in culture before and 48 hours after culture with DMSO, 0.1 μM, or 1.0 μM IC261.

[4] = test system: SK-N-AS (normal MYCN expression) cells; assay: as above; format: cell-based; conditions: 48 hours; 0.33 μM or 3.3 μM IC261
Experimental: as §2

[5] = Cell viability with increasing IC261, normal c-MYC expressing cells; format: cell-based; conditions: human; IC261 at 0.5 log μM and above
Experimental: (§3) The effect of CSNK1ε on the cell viability of ovarian cancer lines was investigated in vitro. First, HFF (non-cancer primary cells) with control vector, RMG-1 (normal c-MYC expressing), CaOV3 (normal c-MYC expressing), HFF with cMYC induced (amplified c-MYC expressing), TOV112D (amplified c-MYC expressing), and COLO720E (amplified c-MYC expressing) were exposed to increasing concentrations of IC261. Cell viability was assessed as described above.

[6] = test system: TOV112D cells (amplified c-MYC expression); assay: Cell cycle analysis (Propidium Iodide staining, FACS); format: cell-based, human; conditions: 1 μM IC261; 16 and 24 hours
Experimental: (§4) Ovarian cancer cell lines with normal (i.e., low) and amplified expression of c-MYC were assessed for the impact of the CSNK1ε inhibitor IC261 on the progression of the cell cycle. CaOV3 cells (normal c-MYC expression) and TOV112D cells (amplified c-MYC expression) were cultured in 1 μM IC261. The cells were assessed for the state of the cell cycle, namely G1, S-phase, and G2, at time points before and 16 and 24 hours after contact with IC261 by Propidium Iodide staining followed by FACS analysis. […] However, the levels were lower for the cells with amplified c-MYC expression. […] This trend was not observed for the cancer cells with normal c-MYC expression.

[7] = test system: CaOV3 cells (normal c-MYC expression); assay: as above; format: cell-based, human; conditions: 1 μM IC261; 16 and 24 hours
Experimental: as §4

[8] = test system: HFF with cMYC induced, TOV112D, COLO720E (amplified c-MYC expressing); assay: Cell viability with increasing IC261, cells with amplified c-MYC; format: cell-based, human; conditions: IC261 at 0.5 log μM and above
Experimental: as §3

[9] = test system: IMR-32 neuroblastoma cells (amplified MYCN expression); assay: Cell viability of neuroblastoma cells treated with IC261; format: cell-based
Experimental: Lentiviral vectors expressing Dox-inducible shRNAs targeting CSNK1ε were transduced into SK-N-AS, a neuroblastoma line with normal MYCN expression, and SK-N-BE2 and IMR-32, neuroblastoma lines with amplified MYCN expression. Expression of the shRNAs were induced with Dox and cell viability was assayed after four days using the CellTiter Glo assay (Promega, Madison, Wis.).
To evaluate the therapeutic potential of CSNK1ε kinase inhibitors for the inhibition of tumor cell growth, the kinase function of CSNK1ε polypeptide was blocked with IC261, a small molecule inhibitor of CSNK1ε and d kinase activity (Mashhoon, N., et al., “Crystal Structure of a Conformation-Selective Casein Kinase-1 Inhibitor,” J Biol Chem 275:20052-20060, 2000). Specifically, the sensitivity of MYC overexpressing cells to IC261 relative to control, was determined in vitro utilizing the neuroblastoma cell lines SK-N-AS (normal MYCN expression) and IMR-32 (amplified MYCN expression). Cultured cells were treated with a range of concentrations of IC261 and percent of cell viability was recorded over four days as described above. […] The difference in cell viability was significant at the 1, 5 and 10 μM concentrations.

[10] = test system: PEO4 (cisplatin-resistant derivative) ovarian cancer cells; assay: Cell viability with cisplatin in presence or absence of IC261; format: cell-based, human; conditions: 1 μM IC-261 with low doses of cisplatin
Text: (§5) Cisplatin, or cis-diamminedichloroplatinum(II) (CDDP), is a chemotherapy drug commonly used to treat numerous types of cancers including ovarian cancer. Cisplatin contains platinum complexes that crosslink DNA, ultimately triggering apoptosis of the cell. However, many treated cancer relapse and display a resistance to cisplatin. Considering the ability of CSNK1ε inhibitors to reduce viability of cells with amplified c-MYC expression, a similar role of CSNK1ε inhibitors on cisplatin resistant cancer cells was investigated. A2780 and A2780-CP70 (resistant derivative), PEO1 and PEO4 (resistant derivative of PE01) ovarian cancer cell lines were cultured in the presence of increasing doses of cisplatin and the presence or absence of IC261. Cell viability was monitored as described above. […] It is noted that the c-MYC expression level in A2780 cells is yet undetermined.

[11] = test system: TOV112D/Luc human ovarian cancer cells; assay: Peritoneal carcinomatosis model mice (TOV112D/Luc intraperitoneal xenograft); format: in vivo
Experimental: The effect of CSNK1ε on the cell viability of ovarian cancer cells was then investigated in vivo. Peritoneal carcinomatosis model mice were generated by the intraperitoneal injection of TOV112D/Luc cells. After one week, the mice were randomized into control and experimental groups, which then received daily injections of IC261 or DMSO carrier for three weeks. Weekly Luc imaging was performed for each mouse at the termination of each week of the experiment to monitor the relative viability of cancer cells that have established in the mice. […] As illustrated in the survival graph in FIG. 11B, the DMSO group and IC261 treatment groups diverged in percent survival starting at day 30 when the DMSO group began to experience drastic mortality.

[12] = test system: WNT signaling (β-catenin reporter) in Tet-21N neuroblastoma cells; assay: Integrated WNT reporter in Tet-21N neuroblastoma cells; format: cell-based; conditions: MYCN-on cells
Experimental: (§6) CSNK1ε has been implicated as a positive regulator of WNT signaling (Sakanaka, C., “Phosphorylation and Regulation of Beta-Catenin by Casein Kinase I Epsilon,” J Biochem 132:697-703, 2002). To determine the functional status of WNT activity in neuroblastoma cells with or without amplified MYCN expression, a WNT dual reporter system, employing both consensus (TOP) and mutant (FOP) TCF binding sites was assayed in neuroblastoma cell lines SK-N-AS (MYCN not amplified), SH-Sy5Y (MYCN not amplified), IMR-32 (MYCN amplified and overexpressed), and SK-N-BE2 (MYCN amplified and overexpressed), as described in (Biechele, T. L., et al., “Transcription-Based Reporters of Wnt/beta-Catenin Signaling,” Cold Spring Harb Protoc 2009, pdb prot5223).
A potential direct connection of WNT with MYCN expression was explored utilizing neuroblastoma cells expressing an inducible Tet-MYCN gene. Tet-21N neuroblastoma cells (normal MYCN expression) carrying a Tet-off-MYCN gene, were treated with or without Dox (a tetracycline compound), as described supra. […] Further, the WNT activity was assayed through the detectable activity of an integrated WNT reporter.

[13] = test system: PEO1 ovarian cancer cells; assay: Cell viability with cisplatin in presence or absence of IC261; format: cell-based; conditions: 1 μM IC-261 with low doses of cisplatin
Text: as §5

[14] = test system: A2780 ovarian cancer cells; assay: as above; format: cell-based; conditions: 1 μM IC-261 with increasing doses of cisplatin
Text: as §5

[15] = test system: A2780-CP70 (cisplatin-resistant) ovarian cancer cells; assay: as above; format: cell-based; conditions: 1 μM IC-261 with increasing doses of cisplatin
Text: as §5

[16] = test system: IMR-32 (amplified MYCN expression) xenograft blastoma tumors; assay: IMR-32 neuroblastoma xenograft in NOD/SCID mice; format: in vivo
Experimental: To evaluate the therapeutic potential of CSNK1ε kinase inhibitors, IC261, a small molecule inhibitor of CSNK1ε and d kinase activity (Mashhoon, N., et al., “Crystal Structure of a Conformation-Selective Casein Kinase-1 Inhibitor,” J Biol Chem 275:20052-20060, 2000) was administered to mice with established IMR-32 (amplified MYCN expression) xenograft blastoma tumors. Specifically, 10 NOD/SCID mice were injected with 1×10^7 IMR-32 blastoma cells. The tumors were allowed to establish for 6 weeks. The mice were randomized into control and IC261 treatment groups. At the start of treatment, the average tumor size for the control mice was 98.8±42.5 mm^3, whereas the average tumor size for the IC261 treatment group was 121.9±46.9 mm^3. The groups were subcutaneously injected once daily for seven days with 20.5 mg/kg of IC261 or DMSO in 200 μl. During treatment, the tumor size was monitored. […] However, at day three the average tumor volume of the IC261-treated mice was reduced, a trend that continued throughout the remaining treatment schedule, ultimately to a volume of about 100 mm^3. In contrast, the tumor volume of the DMSO-treated mice continued to increase to a volume of about 350 mm^3. Histological sections of tumors from each group were prepared after the 8th day of IC261 treatment. The tumor sections were subjected to hematoxylin and eosin (H-E) stain, TUNEL stain, and BrdU staining to ascertain the cell structure, and frequencies of cell apoptosis, and cell proliferation within the tumors. […] The images shown in FIG. 7D are representative of at least 10 fields viewed over two stained sections per animal.

[17] = test system: WNT signaling (β-catenin activity) in COLO720E ovarian cells; assay: Relative β-catenin activity (WNT signaling) in COLO720E ovarian cells; format: cell-based, human; conditions: higher doses of IC261 (0, 0.67, 3.3, 6.67 μM tested)
Experimental: as §6
The impact of stable knock-down of CSNK1ε was assessed for the expression for WNT signal function. To confirm the efficacy of the stable knockdown technique in ovarian cells, Dox-inducible lentivirus constructs encoding shRNAs targeting CSNK1ε were transduced into COLO720E ovarian cells. […] Next, to assess the WNT signaling activity, relative β-catenin activity was assayed as described, supra, for COLO720E ovarian cells transduced with the shRNA encoding lentivirus targeting CSNK1ε. […] A similar effect on relative β-catenin activity was observed upon administration of IC261, the inhibitor of CSNK1ε. […]

DOV13 = assay: IC261 loss of cell viability, ovarian cancer cell panel; format: cell-based; conditions: Homo sapiens
Experimental: as §3
(§7) Similar assays were performed with an additional panel of ovarian cancer cells, including IGROV-1, PE01, DOV13, OAW42, TOV21G, and SKOV3. The log of the half maximal effective concentration (log IC50) was calculated to reflect half the concentration of IC261 required to results in complete loss of cell viability.

SKOV3 = assay: as above; format: cell-based; conditions: Homo sapiens, SK-OV-3
Experimental: as §3, §7

PE01 = assay: as above; format: cell-based; conditions: Homo sapiens
Experimental: as §3, §7

TOV21G = assay: as above; format: cell-based; conditions: Homo sapiens
Experimental: as §3, §7

OAW42 = assay: as above; format: cell-based; conditions: Homo sapiens, OAW-42
Experimental: as §3, §7

IGROV-1 = assay: as above; format: cell-based; conditions: Homo sapiens
Experimental: as §3, §7

## CC1=C2C[C@H]3[C@@H](CC=C4C[C@@H](O)CC[C@@]43C)[C@@H]2CC[C@]12O[C@@H]1C[C@H](C)CN[C@H]1[C@H]2C [Cyclopamine]
[1]
  growth inhibition: Growth inhibition was detected
[2]
  growth inhibition: more pronounced

## COc1cc(OC)c(/C=C2/C(=O)Nc3ccccc32)c(OC)c1 [IC261]
[3]
  cell appearance in micrographs: detached from the plate surface and balled up
[4]
  cell appearance in micrographs: maintained healthy spreading and attachment
[5]
  viability: ≥ 75%
[6]
  cells in the G2 phase: arrested at the G2 checkpoint
  percentage of cells in the G1 phase: drastically reduced
[7]
  cells in the G2 phase: small and transient ability to cause cell cycle arrest in G2
  percentage of cells in the G1 phase: drastically reduced
[8]
  relative viability: ≤ 25%
[9]; 48 hours, IC261 0.33 μg/ml and higher
  percent cell viability, IMR-32 compared to SK-N-AS: lower percent cell viability
[9]; 72 hours
  difference in cell viability, IMR-32 vs SK-N-AS: significant difference in cell viability
[9]; 96 hours, higher doses
  difference in cell viability, IMR-32 vs SK-N-AS: not statistically significant
[10]
  cell viability with low doses of cisplatin: large reduction in cell viability
[11]; daily injections for three weeks, groups diverged starting at day 30
  survival vs DMSO group: prolonged the life of the subjects
[11]; daily injections, after two weeks
  cancer cell proliferation and viability (Luc imaging) vs DMSO: significantly reduced cancer cell proliferation and viability
[11]; week four
  difference among treatment groups (Luc imaging): much more pronounced
[12]
  WNT reporter (β-catenin signal): repression of the WNT reporter
[13]
  cell viability with low doses of cisplatin: large reduction in cell viability
[14]
  response to cisplatin (cell viability): greatly sensitized
[15]
  response to cisplatin (cell viability): greatly sensitized
[16]; 20.5 mg/kg subcutaneously once daily for seven days
  average tumor volume at end of treatment schedule: about 100 mm^3
[16]; after the 8th day of IC261 treatment
  cell proliferation in tumor sections (BrdU stain) vs DMSO control: drastically reduced indications of cell proliferation
[16]; day three of treatment, 20.5 mg/kg s.c. daily
  average tumor volume: reduced
[16]; first two days of treatment, 20.5 mg/kg s.c. daily
  tumor volume vs DMSO-treated mice: no significant difference
[17]
  relative β-catenin activity: reduced by more than two thirds
DOV13
  IC50: 7.09 µM
SKOV3
  IC50: 4.63 µM
PE01
  IC50: 8.8 µM
TOV21G
  IC50: 6.55 µM
OAW42
  IC50: 6.61 µM
IGROV-1
  IC50: 585 µM
